The compounds below were run against C-Raf FL (full length CRAF with Y340E and Y341E activating mutations, co-expressed with h14-3-3 zeta) (Homo sapiens (Human), UniProt P04049, Y340E/Y341E) (assay: In vitro Raf activity determination, AlphaScreen p-MEK readout, c-Raf (C-Raf FL)). Conditions: c-Raf approximately 4 nM, ATP 1 μM, pre-incubation 60 minutes, reaction 1 hour.
Sequence of C-Raf FL (full length CRAF with Y340E and Y341E activating mutations, co-expressed with h14-3-3 zeta) (P04049 whole entry Y340E/Y341E): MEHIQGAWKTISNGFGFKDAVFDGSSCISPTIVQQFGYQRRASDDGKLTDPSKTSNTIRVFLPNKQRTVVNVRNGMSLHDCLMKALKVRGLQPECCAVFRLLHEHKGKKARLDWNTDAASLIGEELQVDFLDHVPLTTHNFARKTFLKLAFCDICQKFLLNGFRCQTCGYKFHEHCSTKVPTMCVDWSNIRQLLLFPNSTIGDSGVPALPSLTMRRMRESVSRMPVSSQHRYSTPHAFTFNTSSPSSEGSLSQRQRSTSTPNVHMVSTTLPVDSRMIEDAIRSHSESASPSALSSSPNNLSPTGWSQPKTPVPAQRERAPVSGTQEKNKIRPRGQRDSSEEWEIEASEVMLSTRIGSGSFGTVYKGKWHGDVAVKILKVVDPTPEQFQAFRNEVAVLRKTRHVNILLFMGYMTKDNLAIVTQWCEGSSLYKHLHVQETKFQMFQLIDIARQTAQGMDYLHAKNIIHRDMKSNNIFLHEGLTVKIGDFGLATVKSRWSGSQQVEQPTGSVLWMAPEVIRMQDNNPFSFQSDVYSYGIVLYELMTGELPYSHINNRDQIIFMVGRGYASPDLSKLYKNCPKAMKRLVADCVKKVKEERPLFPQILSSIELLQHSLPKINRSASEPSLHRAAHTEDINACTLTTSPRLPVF
Sequence of C-Raf FL (full length CRAF with Y340E and Y341E activating mutations, co-expressed with h14-3-3 zeta) (P63104 whole entry partner): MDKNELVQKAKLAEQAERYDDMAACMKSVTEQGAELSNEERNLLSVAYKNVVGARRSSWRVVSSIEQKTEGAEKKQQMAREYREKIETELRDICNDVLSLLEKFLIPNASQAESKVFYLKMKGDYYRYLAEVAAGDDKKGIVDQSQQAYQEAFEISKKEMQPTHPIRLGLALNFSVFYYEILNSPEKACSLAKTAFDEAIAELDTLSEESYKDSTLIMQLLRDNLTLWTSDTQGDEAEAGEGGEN
Format: biochemical
How it was run: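 Phosphorylation of kinase-dead biotinylated MEK1 (~10 nM) by C-Raf FL (~4 nM) read by AlphaScreen luminescence with anti-phospho-MEK1/2 after EDTA stop. ATP was 1 μM, with a 1 h reaction at room temperature. Compounds were pre-incubated with enzyme and substrate for 60 min in Tris/MgCl2 buffer, pH 7.5.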
Cc1ccc(NC(=O)c2ccnc(C(C)(F)F)c2)cc1-c1cnc2c(c1)N1CCOC[C@H]1[C@@H](C(C)(C)O)C2 [Example 453, 2-(1,1-difluoroethyl)-N-(3-((4aR,5S)-5-(2-hydroxypropan-2-yl)-1,2,4,4a,5,6-hexahydro-[1,4]oxazino[4,3-a][1,5]naphthyridin-9-yl)-4-methylphenyl) isonicotinamide] showed an IC50 of 0.7 nM. Cc1ccc(NC(=O)c2ccnc(C(F)(F)F)c2)cc1-c1cnc2c(c1)N1CCOC[C@@H]1[C@@H](C(C)(C)O)C2 [Example 454] gave an IC50 of 0.8 nM. Work on Cc1ncc(NC(=O)c2cccc(C(F)(F)F)c2)cc1-c1cnc2c(c1)N1CCOC[C@@H]1[C@@H](C(C)(C)O)C2 [Example 455, N-(5-((4aS,5S)-5-(2-hydroxypropan-2-yl)-1,2,4,4a,5,6-hexahydro-[1,4]oxazino[4,3-a][l,5]naphthyridin-9-yl)-6-methylpyridin-3-yl)-3-(trifluoro-methyl)benzamide] yielded an IC50 of 1.3 nM. In the case of Cc1ccc(NC(=O)c2ccnc(C(C)(F)F)c2)cc1-c1cnc2c(c1)N1CCOC[C@@H]1[C@@H](C(C)(C)O)C2 [Example 456, 2-(1,1-difluoroethyl)-N-(3-((4aS,5S)-5-(2-hydroxypropan-2-yl)-1,2,4,4a,5,6-hexahydro-[1,4]oxazino[4,3-a][1,5]naphthyridin-9-yl)-4-methylphenyl) isonicotinamide], the IC50 is reported as 0.7 nM. Cc1ccc(NC(=O)c2ccnc(C(F)(F)F)c2)cc1-c1cnc2c(c1)N1CCOC[C@H]1[C@H](C(C)(C)O)C2 [Example 457] gave an IC50 of 0.4 nM. Cc1ncc(NC(=O)c2cccc(C(F)(F)F)c2)cc1-c1cnc2c(c1)N1CCOC[C@H]1[C@H](C(C)(C)O)C2 [Example 458, N-(5-((4aR,5R)-5-(2-hydroxypropan-2-yl)-1,2,4,4a,5,6-hexahydro-[1,4]oxazino[4,3-a][1,5]naphthyridin-9-yl)-6-methylpyridin-3-yl)-3-(trifluoro-methyl)benzamide] showed an IC50 of 0.7 nM. Cc1ccc(NC(=O)c2ccnc(C(C)(F)F)c2)cc1-c1cnc2c(c1)N1CCOC[C@@H]1[C@@H](C(C)(C)O)C2 [Example 459, 2-(1,1-difluoroethyl)-N-(3-((4aS,5S)-5-(2-hydroxypropan-2-yl)-1,2,4,4a,5,6-hexahydro-[1,4]oxazino[4,3-a][1,5]naphthyridin-9-yl)-4-methylphenyl) isonicotinamide] was tested, and the IC50 was 0.4 nM. For Cc1ncc(NC(=O)c2ccnc(C(C)(F)F)c2)cc1-c1ccc2c(c1)N1CCOC[C@H]1[C@](F)(CF)C2 [Example 467], the IC50 was 1.9 nM. With Cc1ncc(NC(=O)c2ccnc(C(C)(C)C)c2)cc1-c1ccc2c(c1)N1CCOC[C@H]1[C@](F)(CF)C2 [Example 468, 2-(tert-butyl)-N-(5-((4aS,5S)-5-fluoro-5-(fluoromethyl)-1,2,4,4a,5,6-hexahydro-[1,4]oxazino[4,3-a]quinolin-9-yl)-6-methylpyridin-3-yl)isonicotinamide] the IC50 was 8 nM. With Cc1ccc(NC(=O)c2cncc(C(F)(F)F)c2)cc1-c1ccc2c(c1)N1CCOC[C@H]1[C@](F)(CF)C2 [Example 469, N-(3-((4aS,5S)-5-fluoro-5-(fluoromethyl)-1,2,4,4a,5,6-hexahydro-[1,4]oxazino[4,3-a]quinolin-9-yl)-4-methylphenyl)-5-(trifluorometh-yl)nicotinamide] the IC50 was 1.8 nM. In the case of Cc1ncc(NC(=O)c2cncc(C(F)(F)F)c2)cc1-c1ccc2c(c1)N1CCOC[C@H]1[C@](F)(CF)C2 [Example 470, N-(5-((4aS,5S)-5-fluoro-5-(fluoromethyl)-1,2,4,4a,5,6-hexahydro-[1,4]oxazino[4,3-a]quinolin-9-yl)-6-methylpyridin-3-yl)-5-(trifluorometh-yl)nicotinamide], the IC50 is reported as 2.2 nM. Work on Cc1ncc(NC(=O)c2ccnc(C(F)(F)F)c2)cc1-c1ccc2c(c1)N1CCOC[C@H]1[C@](F)(CF)C2 [Example 471, N-(5-((4aS,5S)-5-fluoro-5-(fluoromethyl)-1,2,4,4a,5,6-hexahydro-[1,4]oxazino[4,3-a]quinolin-9-yl)-6-methylpyridin-3-yl)-2-(trifluoromethyl)iso-nictonamide] yielded an IC50 of 1.2 nM. Work on Cc1ccc(NC(=O)c2ccnc(C(F)(F)F)c2)cc1-c1ccc2c(c1)N1CCOC[C@H]1[C@](F)(CF)C2 [Example 472, N-(3-((4aS,5S)-5-fluoro-5-(fluoromethyl)-1,2,4,4a,5,6-hexahydro-[1,4]oxazino[4,3-a]quinolin-9-yl)-4-methylphenyl)-2-(trifluoromethyl)iso-nicotinamide] yielded an IC50 of 2 nM. Cc1ccc(NC(=O)c2ccnc(C(C)(F)F)c2)cc1-c1ccc2c(c1)N1CCOC[C@H]1[C@](F)(CF)C2 [Example 473] showed an IC50 of 1.5 nM. Cc1ccc(NC(=O)c2ccnc(C(C)(C)C)c2)cc1-c1ccc2c(c1)N1CCOC[C@H]1[C@](F)(CF)C2 [Example 474, 2-(tert-butyl)-N-(3-((4aS,5S)-5-fluoro-5-(fluoromethyl)-1,2,4,4a,5,6-hexahydro-[1,4]oxazino[4,3-a]quinolin-9-yl)-4-methylphenyl)iso-nicotinamide] showed an IC50 of 5.5 nM. Compound Cc1ccc(NC(=O)c2cnnc(C(F)(F)F)c2)cc1-c1ccc2c(c1)N1CCOC[C@H]1[C@](F)(CF)C2 [Example 475, N-(3-((4aS,5S)-5-fluoro-5-(fluoromethyl)-1,2,4,4a,5,6-hexahydro-[1,4]oxazino[4,3-a]quinolin-9-yl)-4-methylphenyl)-6-(trifluorometh-yl)pyridazine-4-carboxamide] has an IC50 of 0.4 nM. Cc1ccc(NC(=O)c2ccnc(C(C)(F)F)c2)cc1-c1cc2c(cc1F)C[C@](F)(CO)[C@H]1COCCN21 [Example 476, N-(3-((4aR,5R)-5,8-difluoro-5-(hydroxymethyl)-1,2,4,4a,5,6-hexahydro-[1,4]oxazino[4,3-a]quinolin-9-yl)-4-methylphenyl)-2-(1,1-difluoroethyl)iso-nicotinamide] showed an IC50 of 0.2 nM. For Cc1ccc(NC(=O)c2cnnc(C(F)(F)F)c2)cc1-c1cc2c(cc1F)C[C@](F)(CO)[C@H]1COCCN21 [Example 477, N-(3-((4aR,5R)-5,8-difluoro-5-(hydroxymethyl)-1,2,4,4a,5,6-hexahydro-[1,4]oxazino[4,3-a]quinolin-9-yl)-4-methylphenyl)-6-(trifluoromethyl) pyridazine-4-carboxamide], the IC50 was 0.1 nM. With Cc1ccc(NC(=O)c2ccnc(C(C)(C)F)c2)cc1-c1cc2c(cc1F)C[C@](F)(CO)[C@H]1COCCN21 [Example 478, N-(3-((4aR,5R)-5,8-difluoro-5-(hydroxymethyl)-1,2,4,4a,5,6-hexahydro-[1,4]oxazino[4,3-a]quinolin-9-yl)-4-methylphenyl)-2-(2-fluoropropan-2-yl)isonicotinamide] the IC50 was 0.2 nM. Work on Cc1ncc(NC(=O)c2cccc(C(F)(F)F)c2)cc1-c1cc2c(cc1F)C[C@](F)(CO)[C@H]1COCCN21 [Example 479, N-(5-((4aR,5R)-5,8-difluoro-5-(hydroxymethyl)-1,2,4,4a,5,6-hexahydro-[1,4]oxazino[4,3-a]quinolin-9-yl)-6-methylpyridin-3-yl)-3-(trifluoromethyl) benzamide] yielded an IC50 of 0.4 nM. Cc1ccc(NC(=O)c2ccnc(C(F)(F)F)c2)cc1-c1cc2c(cc1F)C[C@](F)(CO)[C@H]1COCCN21 [Example 480, N-(3-((4aR,5R)-5,8-difluoro-5-(hydroxymethyl)-1,2,4,4a,5,6-hexahydro-[1,4]oxazino[4,3-a]quinolin-9-yl)-4-methylphenyl)-2-(trifluoromethyl) isonicotinamide] showed an IC50 of 0.2 nM.

— patent publication US10377770B2 (Novartis AG, priority 2015, dated 2019)
